Earlier results on four molecules are cited in patent publication US20070010584A1, “Compositions and methods for orthostatic intolerance” (priority 2003, published 2007).

Read-outs that look alike come from different tables or passages of the source.

The conditions of series [1]: in vivo.
In series [2] the test system is patients with OI and orthostatic tachycardia. The following applies: in vivo.
Setting [3] is: clonidine 0.1 mg PO, 13 patients with OI.

On to `N[C@H](C(=O)O)[C@H](O)c1ccc(O)c(O)c1` [DOPS, Threo-3-(3,4-dihydroxyphenyl)serine], for which the “time of peak NE levels” value (after ingestion of DOPS) is “about 5 hours”. Further, the “duration of increased plasma levels of DOPS and NE” value (after oral administration of DOPS) is reported as “at least 12 hours”. For the same molecule, under “after oral ingestion”, the “time of peak plasma levels of DOPS” value was “about 3 hours”.
Regarding `COc1ccc(OC)c(C(O)CNC(=O)CN)c1` (stereo not drawn) [Midodrine], the “supine and standing heart rate” value in the series with patients with OI (midodrine 5-10 mg PO, 13 patients with OI) is “decreased both supine and standing heart rate”. Besides, in series [1], the half-life is 30 min.
Regarding `CC(C)NCC(O)COc1cccc2ccccc12` (stereo not drawn) [Propranolol], the “efficacy in OI and orthostatic tachycardia” value in series [2] was “effective in a number of patients”.
Take `Clc1cccc(Cl)c1N=C1NCCN1` [clonidine]: in the series on patients with OI (clonidine 0.1 mg PO), the “tolerability in OI patients” value was “tolerate clonidine poorly”. Besides, in the series on patients with OI (setting [3]), the blood pressure result is “significantly decreased blood pressure”; the “supine and standing heart rate” value was “decreased both supine and standing heart rate”.

By half-life is commonly meant how long it takes for the measured level to halve.
